Data from US7053177B1, “Random peptides that bind to gastro-intestinal tract (GIT) transport receptors and related methods” (Cytogen Corporation, priority 1997, dated 2006).
Ends that are not written are not given here. * marks the point of attachment. Dansyl = CN(C)c1cccc2c(S(=O)(=O)*)cccc12

How the values were obtained:
[1] = tested on: P100 membrane fraction of Caco-2 cells; experiment: GST-PAX2 peptides: relative binding to P100 fractions (ratio to GST-HAX42); conditions: GST-peptide 20 μg/ml; binding to plastic subtracted; GST-HAX42 = 1.00
Protocol: The peptides and proteins were analyzed by a dansylated peptide ELISA method in which 96 well plates were coated overnight at 4° C. with 100 μl/well coating protein (normally 100 μg/ml P100 membrane fraction) in 0.05M carbonate buffer pH9.6. Nonspecific binding was blocked using 200 μl/well, 2% Marvel/PBS for 2 hours at 37° C. prior to incubation with dansylated peptides. The plates were washed three times with PBS/0.05% Tween 20 and after each subsequent incubation step. […] A buffer blank control was included to ensure that background binding to plastic was not due to the antibodies used in the assay system. […] The plates were then incubated with an anti-mouse λ-HRP conjugated antibody (Southern Biotech 1060-05) at a 1:10,000 dilution in blocking solution, 100 μl/well for 1 hour at room temperature. Plates were developed using 75 μl/well Bionostics TMB substrate and incubated for approximately 10 minutes. The developing reaction was stopped using Bionostics Red Stop solution (25 μl/well), and the optical density of the plates was read at 650 nm.
After subtraction of the GST-peptide binding to plastic from P100 binding values, the binding of GST-PAX2 peptides were represented as a ratio of GST-HAX42 binding to P100, which was given the arbitrary value of 1.00. The following ratios were determined from binding to P100 of GST-peptides at a peptide concentration of 20 μg/ml. […]

[2] = tested on: fixed Caco-2 cells; experiment: Effect of thrombin cleavage on binding of GST-peptide fusions to fixed Caco-2 cells; conditions: in words
Protocol: Binding of intact and thrombin-cleaved GST-peptide fusions to fixed Caco-2 cells was compared.
Thirty micrograms of each GST-peptide was treated with bovine thrombin (1 μ/ml; 0.4 NIH units; Sigma CN.T9681) for 18h at room temperature in 20 mM Tris-HCl pH8.0, 150 mM NaCl, 2.5 mM CaCl2. Controls were similarly treated without addition of thrombin. Ten micrograms of each GST-peptide fusion was removed for PAGE analysis, and 10 μg of fusions were added in duplicate to the fixed Caco-2 cells before 5-fold serial dilutions (1% BPT diluent). The fusions were allowed to bind for 1h at room temperature. Following 6 washes with 1% BPT, binding was assayed by ELISA.

[3] = tested on: fixed Caco-2 cells; experiment: Competition ELISA: synthetic peptides versus GST-peptide fusions on fixed Caco-2 cells; conditions: peptide from 100 μg/ml serially diluted; GST fusion 10 μg
Protocol: Caco-2 cells were fixed, treated with phenylhydrazin and blocked as described above. Synthetic peptides (100 μg/ml) were applied in duplicate to Caco-2 cells and serially diluted down the 96-well plate. The corresponding GST-peptide fusion protein (10 μg) was added to each well and the plates were incubated for 2h at room temperature with agitation. Binding of the GST-peptide fusion proteins to the cells was assayed using the ELISA technique described above.

[4] = tested on: P100 membrane fraction of Caco-2 cells; experiment: Binding of dansylated peptides to P100 fractions (peptide/particle correlation); conditions: compared with scrambled PAX2 control
Protocol: Caco-2 cell membrane (P100) and cytosolic (S100) fractions were prepared using a modification of the method described in Kinsella, B. T., O'Mahony, D. J. and G. A. FitzGerald, 1994, J. Biol. Chem. 269(47): 29914–29919. Confluent Caco-2 cell monolayers (grown in 75 cm^2 flasks for up to 1 week at 37° C. and 5% CO2) were washed twice in Dulbecco's PBS (DPBS) and the cells were harvested by centrifugation at 1000 rpm after treatment with 10 mM EDTA-DPBS. The cells were washed 3 times in DPBS and the final cell pellet was resuspended in 3 volumes of ice cold HED buffer (20 mM HEPES (pH 7.67), 1 mM EGTA, 0.5 mM dithiothreitol, 1 mM phenylmethylsulphonyl fluoride (PMSF)). The cells were allowed to swell for 5 min on ice prior to homogenization for 30 sec. The homogenates were centrifuged at 40,000 rpm for 45 min at 4° C. The supernatant (S100) was removed and the pellet (P100) was resuspended in HEDG buffer (20 mM HEPES (pH 7.67), 1 mM EGTA, 0.5 mM dithiothreitol, 100 mM NaCl, 10% glycerol, 1 mM PMSF). Protein concentrations were determined using the Bradford assay (Bradford, M. M., 1976, Anal. Biochem. 72: 248–254).
Binding of peptide and/or peptide-coated PLGA particles to membrane (P100) and cytosolic (S100) fractions was assessed by detection of the dansyl moiety incorporated in the peptide. Costar ninety six well ELISA plates were coated with S100 and P100 fractions (100 μg/ml in 0.05 M NaHCO3) overnight at 4° C. The plates were blocked with 0.5% bovine serum albumin in DPBS for 1 h at room temperature and washed 3 times in 1% BSA-DPBS. Peptide-coated particles or peptides were dispersed in the same buffer and added to the plates at concentrations in the range 0.0325–0.5 mg/well. […] The plates were incubated for 1 h at room temperature. The wells were washed 3 times in 1% BSA-DPBS and 100 μl of goat anti-mouse IgGλ:HRP antibody (Southern Biotechnology 1060-05; 1:10,000) was added per well. The plates were incubated for 1 h at room temperature. After washing 3 times in 1% BSA-DPBS 100 μl of TMB substrate (3,3′,5′,5-tetramethylbenzidine; Microwell Peroxidase Substrate System (Kirkegaard and Perry Laboratories 50-76-00)) was added and the optical density was measured at 650 nm at various time intervals.
Binding of dansylated peptides to P100 fractions was assessed to determine if peptide binding was predictive of peptide-coated particle binding.

[5] = tested on: P100 membrane fraction of Caco-2 cells; experiment: Dansylated peptide ELISA: relative binding of PAX2 and HAX42 peptides to P100 fractions (ratio to ZElan021); conditions: HAX42 peptides, ratio to ZElan021 = 1.00
How it was run: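 Plates coated overnight at 4 °C with Caco-2 P100 membrane fraction (normally 100 μg/ml, pH 9.6) and blocked with 2% Marvel/PBS were incubated with dansylated peptides. Binding was detected with anti-mouse λ-HRP and TMB, read at 650 nm, and expressed relative to ZElan021.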

[6] = Animal Study 3: intraduodenal open loop leuprolide acetate particles, plasma leuprolide; type: in vivo, Wistar rats; conditions: intraduodenal 600 μg vs 12.5 μg subcutaneous
Protocol: An intraduodenal open loop model study was carried out on Wistar rats (300–350 g). Group 1 was administered leuprolide acetate (12.5 μg) subcutaneously. Group 2 was administered intraduodenally uncoated leuprolide acetate particles (600 μg, 1.5 ml).

[7] = tested on: rat gastro-intestinal tract (closed loop); experiment: Transport of preselected phage libraries in rat closed loop, detected by oligonucleotide hybridization/autoradiography; conditions: hPEPT1 pool; in words
[8] = molecular target: BSA (Bos taurus, UniProt P02769); experiment: Receptor ELISA of phage on BSA (background control protein); type: binding; conditions: Table 4; phage panned on hPEPT1
Chain of BSA (P02769 25-607): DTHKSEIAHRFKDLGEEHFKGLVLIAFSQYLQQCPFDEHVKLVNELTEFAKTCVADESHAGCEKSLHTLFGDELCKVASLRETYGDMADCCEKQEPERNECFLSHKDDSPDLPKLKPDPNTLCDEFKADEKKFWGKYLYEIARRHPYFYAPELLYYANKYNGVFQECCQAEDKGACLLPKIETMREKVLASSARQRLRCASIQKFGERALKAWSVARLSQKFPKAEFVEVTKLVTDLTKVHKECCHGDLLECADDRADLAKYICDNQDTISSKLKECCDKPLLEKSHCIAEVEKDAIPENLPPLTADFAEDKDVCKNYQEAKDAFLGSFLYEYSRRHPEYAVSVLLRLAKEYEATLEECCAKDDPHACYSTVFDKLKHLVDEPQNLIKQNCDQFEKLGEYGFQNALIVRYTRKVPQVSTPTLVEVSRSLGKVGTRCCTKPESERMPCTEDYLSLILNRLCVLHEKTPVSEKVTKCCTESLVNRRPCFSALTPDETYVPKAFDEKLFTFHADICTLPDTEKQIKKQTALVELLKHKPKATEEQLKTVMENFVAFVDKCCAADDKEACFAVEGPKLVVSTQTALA

Substance: GST-PAX2-106: GST fusion of truncated peptide derived from PAX2, SEQ ID NO: 188 (TNAKHSSHNRRLRTRSRPN; also: GST fusion)
- Value (binding to P100 as ratio of GST-HAX42 binding) [1]: 2.71
- Effect of cleavage with thrombin on detection of binding to fixed Caco-2 cells [2]: significantly reduced

Substance: H-K(Dansyl)SDHALGTNLRSDNAKEPGDYNCCGNGNSTGRKVFNRRRPSAIPT-NH2 (cysteines drawn unpaired) [ZElan021]
- Inhibition of GST-HAX42 binding to fixed Caco-2 cells [3]: not inhibited
- Binding of dansylated peptide to P100 fraction ([4]; initial assay): strong binding
- Binding of dansylated peptide to P100 fraction ([4]; repeat assay): significant binding
- Binding value at 20 μg/ml ([5]; 20 μg/ml): 1.00
- Binding value at 25 μg/ml ([5]; first column): 1.00
- Binding value at 25 μg/ml ([5]; second column): 1.00
- Binding value at 25 μg/ml ([5]; third column): 1.00
- Binding value at 50 μg/ml ([5]; first column): 1.00
- Binding value at 50 μg/ml ([5]; second column): 1.00

Substance: SARDSGPAEDGSRAVRLNGVENANTRKSSRSNPRGRRHP (not fully specified) [Peptide P31]
- Plasma levels of leuprolide relative to subcutaneous injection [6]: enhanced plasma levels of leuprolide
- Binding to / presence in the intestine samples [7]: preferential binding
- Presence in the portal circulation [7]: found
- Presence in the systemic circulation [7]: found in the systemic circulation
- BSA [8]: 0.075 OD
